# From patent US20200255884A1, “METHOD OF DETECTION OF DNA END(S) AND ITS USE” (INTODNA SP. Z O.O., priority 2017, published 2020)
# Tested on: HeLa 21-4 cells
# Test: Combination of Procedures 1 and 2 for detection of DNA breaks in isolated chromatin of HeLa cells
# Type: cell-based
# Settings: H2O2 4 mM, 30 minutes; control 6.0±0.1
# Description: In this Example, HeLa 21-4 cells (obtained from P.R. Cook, University of Oxford) were seeded on 6-well plates and cultured for 48 hours in DMEM supplemented with 10% FBS until the culture reached 100% confluency (number of cells: 1.2×10^6 per 1 well). Next, cells were treated with the DNA damaging agent H2O2 which was added directly to the growth medium (final concentration: 4 mM). The cells were incubated at 37° C. for 30 minutes in the standard cell culture incubator with CO2 level control. The control, untreated cells and the damaged cells (H2O2) were then harvested using 0.5 ml trypsin and transferred to 1.5 ml Eppendorf tubes. Afterwards, trypsin was inactivated by adding 0.5 ml DMEM supplemented with 10% FBS. Subsequently, cells were spun down in the table top centrifuge (Eppendorf centrifuge, 5417 C, rotor: F45-30-11) (1700 rpm, 5 minutes, room temperature). The cell pellet was resuspended in 10 mM Tris (pH 8.8), a small aliquot of the cells in suspension (50 μl) was transferred to a new 1.5 ml Eppendorf tube and spun down in the table top centrifuge (1 minute, 14000 rpm, room temperature). The supernatant was discarded and the washing step in the same volume (50 μl) of 10 mM Tris (pH 8.8) was repeated (centrifugation in the table top centrifuge (1 minute, 14000 rpm, room temperature)). […]
smiles,measurement,value
OO [H2O2],fluorescence intensity (mean grey value) of immobilized modified DNA,8.9±0.1 a.u.
